Results taken from US20240018153A1, “BENZENESULFONAMIDE DERIVATIVES AND USES THEREOF” (2692372 ONTARIO, INC., priority 2020, published 2024).

What was measured:
BTK [1] = target: T1, BTK (Homo sapiens (Human), UniProt Q06187); assay: HTRF KinEASE-TK kinase assay, BTK; type: biochemical; conditions: 3 h preincubation; for remaining activity at 1 µM: 1 μM compound, read-out: % BTK Remaining activity vs DMSO (1 μM, 3 h); for remaining activity at 10 µM: 10 μM compound, read-out: % BTK Remaining activity vs DMSO (10 μM, 3 h)
T1 sequence (Q06187 whole entry): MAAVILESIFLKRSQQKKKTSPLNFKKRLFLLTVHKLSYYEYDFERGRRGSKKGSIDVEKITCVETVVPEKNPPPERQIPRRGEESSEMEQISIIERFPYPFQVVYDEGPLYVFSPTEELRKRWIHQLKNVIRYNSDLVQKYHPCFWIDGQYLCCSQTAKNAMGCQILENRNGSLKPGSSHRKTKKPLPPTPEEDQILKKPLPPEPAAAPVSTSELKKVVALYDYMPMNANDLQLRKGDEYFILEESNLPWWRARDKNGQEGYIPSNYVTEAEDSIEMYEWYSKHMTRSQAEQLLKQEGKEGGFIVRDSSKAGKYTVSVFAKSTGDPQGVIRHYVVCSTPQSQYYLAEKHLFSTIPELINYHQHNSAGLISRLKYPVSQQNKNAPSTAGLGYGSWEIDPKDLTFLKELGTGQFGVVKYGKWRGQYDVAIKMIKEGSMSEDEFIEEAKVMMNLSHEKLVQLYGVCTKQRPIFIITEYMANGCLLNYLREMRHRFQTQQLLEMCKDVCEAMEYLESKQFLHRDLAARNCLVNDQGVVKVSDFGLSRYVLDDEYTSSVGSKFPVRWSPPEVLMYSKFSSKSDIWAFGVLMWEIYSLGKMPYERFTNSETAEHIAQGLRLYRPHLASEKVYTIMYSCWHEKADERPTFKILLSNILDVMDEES
Summary of the method: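 BTK activity in HTRF KinEASE-TK format, buffer containing 10 mM MnCl2, 5 mM MgCl2, 1 uM ATPγS and 1 mM TCEP; 45 min reaction with biotinylated substrate and ATP.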

FGFR4 = FGFR4 (Homo sapiens (Human), UniProt P22455); assay: HTRF KinEASE-TK kinase assay, FGFR4; type: biochemical; conditions: for remaining activity at 1 µM: read-out: % FGFR4 Remaining activity vs DMSO (1 μM, 3 h); for remaining activity at 10 µM: read-out: % FGFR4 Remaining activity vs DMSO (10 μM, 3 h)
Sequence of FGFR4 (P22455 22-802): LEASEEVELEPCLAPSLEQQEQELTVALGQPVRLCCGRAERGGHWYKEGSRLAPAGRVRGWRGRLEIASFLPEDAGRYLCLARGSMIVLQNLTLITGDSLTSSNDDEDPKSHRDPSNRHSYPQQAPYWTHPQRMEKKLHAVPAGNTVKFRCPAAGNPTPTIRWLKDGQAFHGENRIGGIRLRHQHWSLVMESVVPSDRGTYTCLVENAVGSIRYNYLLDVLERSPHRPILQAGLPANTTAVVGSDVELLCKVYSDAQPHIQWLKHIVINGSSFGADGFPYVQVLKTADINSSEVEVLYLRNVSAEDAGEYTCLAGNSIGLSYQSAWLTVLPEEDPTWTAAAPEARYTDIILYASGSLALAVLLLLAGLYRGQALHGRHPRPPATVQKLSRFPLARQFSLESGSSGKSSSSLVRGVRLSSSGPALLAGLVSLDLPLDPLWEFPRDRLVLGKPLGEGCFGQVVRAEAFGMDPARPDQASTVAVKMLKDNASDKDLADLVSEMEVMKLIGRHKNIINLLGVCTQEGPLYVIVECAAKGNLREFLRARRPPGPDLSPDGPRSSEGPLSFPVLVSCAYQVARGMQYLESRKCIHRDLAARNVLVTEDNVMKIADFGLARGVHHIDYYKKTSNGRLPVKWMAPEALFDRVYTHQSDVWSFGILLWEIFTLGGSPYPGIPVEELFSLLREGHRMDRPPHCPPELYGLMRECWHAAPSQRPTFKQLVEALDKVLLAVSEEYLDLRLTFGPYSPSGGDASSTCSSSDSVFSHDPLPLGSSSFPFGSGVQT
Summary of the method: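 Promega FGFR4 at 0.333 ng/ul (5.12 nM) preincubated with or without inhibitor for 3 h at room temperature, then reaction started with biotinylated substrate and ATP. Stopped with EDTA detection buffer containing 31.25 nM SA-XL665 and Eu-antibody; after 60 min, HTRF 665/620 nm ratio read as substrate phosphorylation.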

BTK [2] = target: T1, BTK; assay: Ramos RA1 cell lysis and immunoassay, phospho-BTK (Y223) inhibition; type: cell-based; set-up: key: X: BTK bound and autophosphoration of BTK inhibited in cells; conditions: RAMOS cells, compound concentration 1 μM
Experimental: Ramos RA 1 cells (ATCC) were cultured in RPMI-1640 media (Wisent) supplemented with 10% heat-inactivated FBS and 1% penicillin/streptomycin. Cells were seeded in 6-well plates at 1.71×10^6 cells/well and incubated at 37° C., 5% CO2 for 16 hours. Cells were treated with compound at the indicated concentrations or DMSO alone and incubated at 37° C., 5% CO2 for 24 hours. Cell suspensions were centrifugated at 1,400-1,600 RPM for 5 minutes at room temperature and supernatants were discarded. Cell pellets were resuspended with 1× RIPA buffer (Millipore) and incubated on ice for 15 minutes. Protein lysates were extracted by centrifugating at 20,000 RPM for 20 minutes at 4° C. Proteins were separated and total BTK protein levels were quantified by Simple Western Immunoassay (ProteinSimple) using the 12-230 kDa Jess Separation Module according to the manufacturer's protocol, using a protein concentration of 0.25 μg/μl and antibodies targeting BTK (clone #D3H5, Cell Signalling) and β-Actin (clone #AC-15, Santa Cruz) diluted to 1:400 and 1:10, respectively, where the latter was used as a loading control. An equal ratio of rabbit and mouse HRP-conjugated secondary antibodies was used for detection. BTK protein levels were quantified relative to S-Actin loading levels and subsequently normalized to the DMSO control. Phosphorylated BTK levels were quantified using the Protein Normalization Assay Module for Jess (ProteinSimple) according to the manufacturer's protocol, using a protein concentration of 1.5 μg/μl and an antibody targeting pBTK (Y223) (Cell Signalling) diluted to 1:50. Phosphorylated BTK levels were quantified relative to the Protein Normalization Reagent and subsequently normalized to the DMSO control.

BMX = BMX (Homo sapiens (Human), UniProt P51813); assay: HTRF KinEASE-TK kinase assay, BMX; type: biochemical; conditions: for remaining activity at 1 µM: 1 uM compound; for remaining activity at 1 µM / remaining activity at 10 µM: 3 h preincubation; for remaining activity at 10 µM: 10 uM compound; for IC50: dose response
Sequence of BMX (P51813 whole entry): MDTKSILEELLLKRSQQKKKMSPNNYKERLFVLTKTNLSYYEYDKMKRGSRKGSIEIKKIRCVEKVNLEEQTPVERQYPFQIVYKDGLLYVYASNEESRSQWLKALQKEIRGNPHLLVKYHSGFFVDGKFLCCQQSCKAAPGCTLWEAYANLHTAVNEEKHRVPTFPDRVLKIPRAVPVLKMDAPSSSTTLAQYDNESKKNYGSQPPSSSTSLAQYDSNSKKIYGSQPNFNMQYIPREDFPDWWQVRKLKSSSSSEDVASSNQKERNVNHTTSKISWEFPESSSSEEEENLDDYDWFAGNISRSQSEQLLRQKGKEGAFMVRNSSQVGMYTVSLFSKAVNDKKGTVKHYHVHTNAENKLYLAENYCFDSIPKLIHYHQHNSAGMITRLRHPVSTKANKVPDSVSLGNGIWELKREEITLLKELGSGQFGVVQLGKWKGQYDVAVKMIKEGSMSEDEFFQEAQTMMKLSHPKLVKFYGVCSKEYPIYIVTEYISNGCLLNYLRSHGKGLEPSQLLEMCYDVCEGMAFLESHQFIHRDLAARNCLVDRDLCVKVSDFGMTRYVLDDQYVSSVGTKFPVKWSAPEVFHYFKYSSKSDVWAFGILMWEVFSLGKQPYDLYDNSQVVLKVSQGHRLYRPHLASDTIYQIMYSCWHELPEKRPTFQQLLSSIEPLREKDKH
Summary of the method: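 Purchased BMX (0.333 ng/ul, 3.03 nM) was preincubated with or without inhibitor for 3 h at room temperature, then biotinylated substrate and ATP were added. Reactions were stopped with EDTA-containing buffer holding 31.25 nM SA-XL665 and Eu-antibody, and after 60 min phosphorylation was read as the HTRF 665/620 nm emission ratio.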

JAK3 = JAK3 (Homo sapiens (Human), UniProt P52333); assay: HTRF KinEASE-TK kinase assay, JAK3; type: biochemical; conditions: for remaining activity at 1 µM: read-out: % JAK3 Remaining activity vs DMSO (1 μM, 3 h); for remaining activity at 10 µM: read-out: % JAK3 Remaining activity vs DMSO (10 μM, 3 h)
Sequence of JAK3 (P52333 781-1124): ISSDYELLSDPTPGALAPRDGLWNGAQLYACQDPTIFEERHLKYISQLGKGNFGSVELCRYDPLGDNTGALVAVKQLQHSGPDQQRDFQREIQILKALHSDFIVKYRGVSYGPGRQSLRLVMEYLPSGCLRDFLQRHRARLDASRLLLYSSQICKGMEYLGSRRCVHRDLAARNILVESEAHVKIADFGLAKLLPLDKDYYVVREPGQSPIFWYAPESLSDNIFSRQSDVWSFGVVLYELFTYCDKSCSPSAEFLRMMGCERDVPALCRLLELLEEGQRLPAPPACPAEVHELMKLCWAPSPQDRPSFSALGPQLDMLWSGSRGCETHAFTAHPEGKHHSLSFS
Summary of the method: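 Promega JAK3 at 0.21 nM was preincubated with inhibitor for 3 h at room temperature before biotinylated substrate and ATP were added. The reaction was stopped with EDTA detection buffer containing 31.25 nM SA-XL665 and Eu-antibody. After 60 min, the HTRF 665/620 nm emission ratio reflected substrate phosphorylation.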

EGFR = EGFR (Homo sapiens (Human), UniProt P00533); assay: HTRF KinEASE-TK kinase assay, EGFR; type: biochemical; conditions: 3 h preincubation; for remaining activity at 1 µM: 1 μM compound, read-out: % EGFR Remaining activity vs DMSO (1 μM, 3 h); for remaining activity at 10 µM: 10 μM compound, read-out: % EGFR Remaining activity vs DMSO (10 μM, 3 h); for IC50: dose response, read-out: EGFR Inhibition IC50
Sequence of EGFR (P00533 25-1210): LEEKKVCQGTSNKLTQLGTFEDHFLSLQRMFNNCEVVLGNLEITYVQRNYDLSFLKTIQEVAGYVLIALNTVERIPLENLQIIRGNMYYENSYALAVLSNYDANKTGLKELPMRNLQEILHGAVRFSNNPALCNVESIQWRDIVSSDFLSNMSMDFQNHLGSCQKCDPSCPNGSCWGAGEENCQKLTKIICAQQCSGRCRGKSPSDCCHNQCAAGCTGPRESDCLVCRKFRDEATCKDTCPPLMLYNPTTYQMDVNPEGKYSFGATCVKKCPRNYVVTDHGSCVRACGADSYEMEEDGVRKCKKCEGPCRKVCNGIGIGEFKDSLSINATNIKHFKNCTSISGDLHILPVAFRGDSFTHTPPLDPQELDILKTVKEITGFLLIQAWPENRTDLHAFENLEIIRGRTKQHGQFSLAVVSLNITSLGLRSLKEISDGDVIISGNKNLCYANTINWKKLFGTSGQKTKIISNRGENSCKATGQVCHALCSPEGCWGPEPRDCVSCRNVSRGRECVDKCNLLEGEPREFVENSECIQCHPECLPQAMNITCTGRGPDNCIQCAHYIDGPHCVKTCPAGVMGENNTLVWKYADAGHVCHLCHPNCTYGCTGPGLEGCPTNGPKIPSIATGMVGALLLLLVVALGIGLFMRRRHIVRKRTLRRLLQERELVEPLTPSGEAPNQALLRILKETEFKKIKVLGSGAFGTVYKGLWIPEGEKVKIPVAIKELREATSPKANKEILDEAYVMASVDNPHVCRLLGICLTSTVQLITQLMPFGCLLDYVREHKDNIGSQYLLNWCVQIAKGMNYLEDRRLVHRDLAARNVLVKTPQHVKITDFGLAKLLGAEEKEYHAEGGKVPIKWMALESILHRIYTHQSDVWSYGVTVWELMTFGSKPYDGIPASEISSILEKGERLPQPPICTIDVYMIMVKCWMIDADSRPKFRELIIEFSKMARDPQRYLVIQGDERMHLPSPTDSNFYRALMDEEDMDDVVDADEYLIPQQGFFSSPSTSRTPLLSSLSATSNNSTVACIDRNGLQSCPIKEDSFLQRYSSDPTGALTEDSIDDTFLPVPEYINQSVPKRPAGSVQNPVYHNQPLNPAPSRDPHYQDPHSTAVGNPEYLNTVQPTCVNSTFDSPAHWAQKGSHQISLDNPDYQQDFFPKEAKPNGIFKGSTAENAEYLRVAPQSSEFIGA
Summary of the method: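 HTRF KinEASE-TK format: EGFR pre-incubated with compound at 1 and 10 uM final (0.5% DMSO) in kinase buffer with 2 mM MnCl2, 5 mM MgCl2 and 1 mM TCEP.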

RIPK2 = RIPK2 (Homo sapiens (Human), UniProt O43353); assay: In vitro RIPK2 inhibition; type: biochemical; conditions: for remaining activity at 1 µM: read-out: % RIPK2 Remaining activity vs DMSO (1 μM, 3 h); for remaining activity at 10 µM: read-out: % RIPK2 Remaining activity vs DMSO (10 μM, 3 h)
Sequence of RIPK2 (O43353 whole entry, species assumed): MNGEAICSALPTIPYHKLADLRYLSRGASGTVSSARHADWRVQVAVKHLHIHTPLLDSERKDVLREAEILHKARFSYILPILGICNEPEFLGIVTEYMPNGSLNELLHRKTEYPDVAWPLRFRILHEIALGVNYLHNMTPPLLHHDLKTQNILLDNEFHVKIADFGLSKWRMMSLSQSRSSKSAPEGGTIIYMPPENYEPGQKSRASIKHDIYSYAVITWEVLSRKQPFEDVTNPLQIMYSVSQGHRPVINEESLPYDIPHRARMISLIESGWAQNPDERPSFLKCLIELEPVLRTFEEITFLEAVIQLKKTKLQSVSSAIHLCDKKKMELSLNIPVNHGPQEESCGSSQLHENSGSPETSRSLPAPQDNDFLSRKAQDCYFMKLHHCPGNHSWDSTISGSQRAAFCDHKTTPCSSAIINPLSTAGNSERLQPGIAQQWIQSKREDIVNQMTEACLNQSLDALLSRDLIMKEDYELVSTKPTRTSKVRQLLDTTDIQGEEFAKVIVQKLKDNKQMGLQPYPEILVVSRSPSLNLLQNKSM

SMILES | remaining activity at 1 µM (BTK [1]) [%] | remaining activity at 10 µM (BTK [1]) [%] | remaining activity at 1 µM (FGFR4) [%] | remaining activity at 10 µM (FGFR4) [%] | pBTK inhibition (RAMOS, 24 h) (BTK [2]) | remaining activity at 1 µM (BMX) [%] | remaining activity at 10 µM (BMX) [%] | remaining activity at 1 µM (JAK3) [%] | remaining activity at 10 µM (JAK3) [%] | remaining activity at 1 µM (EGFR) [%] | remaining activity at 10 µM (EGFR) [%] | IC50 (EGFR) [µM] | IC50 (BMX) [µM] | IC50 (JAK3; dose response) [µM] | remaining activity at 1 µM (RIPK2) [%] | remaining activity at 10 µM (RIPK2) [%]
COCCOc1ccc(Nc2ncc(F)c(Nc3cccc(NC(=O)c4c(F)c(F)c(F)c(F)c4[S@+](C)[O-])c3)n2)cc1 (stereo in doubt) [Compound I-62, 2,3,4,5-tetrafluoro-N-(3-((5-fluoro-2-((4-(2-methoxyethoxy)phenyl)amino)pyrimidin-4-yl)amino)phenyl)-6-(methylsulfinyl)benzamide] | < 50 | < 50 | < 50 | < 50 | X | < 50 | < 50 | > 90 | < 50 | > 90 | 50 to 90 |  |  |  |  | 
COCCOc1ccc(Nc2ncc(F)c(Nc3cccc(Nc4c(F)c(F)c(F)c(F)c4[S@+](C)[O-])c3)n2)cc1 (stereo in doubt) [Compound I-63, 5-fluoro-N^2-(4-(2-methoxyethoxy)phenyl)-N^4-(3-((2,3,4,5-tetrafluoro-6-(methylsulfinyl)phenyl)amino)phenyl)pyrimidine-2,4-diamine] | < 50 | 50 to 90 | > 90 | > 90 | X | < 50 | < 50 | > 90 | 50 to 90 | > 90 | > 90 |  |  |  |  | 
COCCOc1ccc(Nc2ncc(F)c(Nc3cccc(Nc4c(F)c(F)c(F)c(F)c4S(C)(=O)=O)c3)n2)cc1 [Compound I-64, 5-fluoro-N^2-(4-(2-methoxyethoxy)phenyl)-N^4-(3-((2,3,4,5-tetrafluoro-6-(methylsulfonyl)phenyl)amino)phenyl)pyrimidine-2,4-diamine] | < 50 | < 50 | < 50 | < 50 | X | < 50 | < 50 | 50 to 90 | < 50 | > 90 | > 90 |  |  |  |  | 
CS(=O)(=O)c1c(F)c(F)c(F)c(F)c1C(=O)Nc1cc2c(Nc3ccc(F)c(Cl)c3)ncnc2cc1O[C@H]1CCOC1 [Compound I-5, (S)—N-(4-((3-chloro-4-fluorophenyl)amino)-7-((tetrahydrofuran-3-yl)oxy)quinazolin-6-yl)-2,3,4,5-tetrafluoro-6-(methylsulfonyl)benzamide] | < 50 | < 50 | > 90 | > 90 | X | 50 to 90 | < 50 | 50 to 90 | < 50 | < 50 | < 50 | < 1 |  |  |  | 
C[S+]([O-])c1c(F)c(F)c(F)c(F)c1Nc1cc2c(Nc3ccc(F)c(Cl)c3)ncnc2cc1O[C@H]1CCOC1 (stereo partly drawn) [Compound I-4, N^4-(3-chloro-4-fluorophenyl)-N^6-(2,3,4,5-tetrafluoro-6-(methylsulfinyl)phenyl)-7-(((S)-tetrahydrofuran-3-yl)oxy)quinazoline-4,6-diamine] | > 90 | < 50 | > 90 | > 90 |  | > 90 | > 90 | > 90 | > 90 | < 50 | < 50 | < 1 |  |  |  | 
CN(C)S(=O)(=O)c1c(F)c(F)c(F)c(F)c1C(=O)NCCNc1ncnc2[nH]ccc12 [Compound I-47, N-(2-((7H-pyrrolo[2,3-d]pyrimidin-4-yl)amino)ethyl)-2-(N,N-dimethylsulfamoyl)-3,4,5,6-tetrafluorobenzamide] | < 50 | < 50 | 50 to 90 | 50 to 90 |  | < 50 | < 50 | < 50 | < 50 | > 90 | > 90 |  | < 1 | < 1 | < 50 | < 50
C[S+]([O-])c1c(F)c(F)c(F)c(F)c1C(=O)Nc1cc2c(Nc3ccc(F)c(Cl)c3)ncnc2cc1OC1CCOC1 (stereo not shown) [Compound I-3] | 50 to 90 | 50 to 90 | > 90 | > 90 | X | 50 to 90 | > 90 | > 90 | > 90 | < 50 | < 50 | < 1 |  |  |  | 
CS(=O)(=O)c1c(F)c(F)c(F)c(F)c1Nc1cc2c(Nc3ccc(F)c(Cl)c3)ncnc2cc1O[C@H]1CCOC1 [Compound I-2, (S)—N^4-(3-chloro-4-fluorophenyl)-N^6-(2,3,4,5-tetrafluoro-6-(methylsulfonyl)phenyl)-7-((tetrahydrofuran-3-yl)oxy)quinazoline-4,6-diamine] | > 90 | 50 to 90 | > 90 | 50 to 90 |  | 50 to 90 | > 90 | 50 to 90 | < 50 | < 50 | < 50 | < 1 |  |  |  | 
NS(=O)(=O)c1c(F)c(F)c(F)c(F)c1C(=O)NCCNc1ncnc2[nH]ccc12 [Compound I-48] | < 50 | < 50 | > 90 | 50 to 90 |  | < 50 | < 50 | 50 to 90 | < 50 | > 90 | > 90 |  | < 1 |  | < 50 | < 50
